Measurements from US10913773B2, “Bicyclic peptidyl inhibitor of tumor necrosis factor-alpha” (Ohio State Innovation Foundation, priority 2016, dated 2021).

Experiments:
[1] = system: TNFα-induced cell death in WEHI-13VAR fibroblasts (recombinant human TNFα); format: cell-based
Experimental: (§1) WEHI-13VAR fibroblasts were purchased from American Type Culture Collection (ATCC). For maintenance, cells were grown in full medium as RPMI-1640 supplemented with 10% FBS and 1% Abs. For toxicity assay, cells were seeded in a 96-well plate at a density of 5×10^3 cells/well in 100 μL of RPMI-1640/1% Abs supplemented with 10% or 5% FBS and allowed to grow overnight. Varying concentrations of recombinant human TNFα (0-250 ng/mL) or commercial mouse TNFα were (0-100 pg/mL) were incubated with 10 μM peptide and actinomycin D (1 μg/mL) in 100 μL of corresponding growth medium for 1 h at 37° C. Next, the medium in the 96-well plate was removed and replaced with the above fresh mixture and the cells were incubated overnight. Next day, 10 μL of the 3-(4, 5-dimethylthiazolyl-2)-2, 5-diphenyltetrazolium bromide (MTT, final concentration 0.5 mg/ml) was added to each well and incubated at 37° C. for 3 h, following by the addition of 100 μL of the MTT solubilization solution. The plate was kept in the incubator overnight to let the formazan crystals to completely dissolve, and the absorbance at 570 nm was measured on a TECAN plate reader. The LD50 was obtained as plotting the viability as a function of the TNFα concentration.
One of the biological functions of TNFα is to induce death signaling. Inhibitors against the TNFα-TNFR interaction are expected to protect cells against TNFα induced cell death. Therefore, anticachexin C1, C1-74, and C1-74-2 through C1-74-5 were compared for their ability to protect cultured WEHI-13 VAR fibroblasts, which are highly sensitive to TNFα in the presence of actinomycin-D, against TNFα-induced cell death (Khabar, K. S. A.; et al., “WEHI-13VAR: A Stable and Sensitive Variant of WEHI 164 Clone 13 Fibrosarcoma for Tumor Necrosis Factor Bioassay.” Immunol. Lett. 1995, 46:107-110). The cells were treated with a fixed concentration of peptides (10 μM) and varying concentrations of TNFα (0-1 μM), and the fraction of live cells was quantitated by the 3-(4,5-dimethylthiazol-2-yl)-2,5-diphenyltetrazolium bromide (MTT) assay. […] The MTT assay was also conducted at a fixed concentration of TNFα (0.4 ng/mL) but varying concentrations of peptides (0-10 μM).

[2] = system: murine TNFα-induced cell death in WEHI-13VAR fibroblasts; assay: MTT assay: protection of WEHI-13VAR fibroblasts against murine TNFα-induced cell death; format: cell-based; settings: murine TNFα with 10 μM peptide; no inhibitor 10 ng/mL
Experimental: as §1
TNFα inhibitor C1-74-2 was tested for its inhibitory activity against murine TNFα, a necessary step before testing C1-74-2 in a mouse model of inflammatory bowel disease.

[3] = system: TNFα-induced activation of NF-κB; assay: NF-κB luciferase reporter assay in NF-κB reporter (Luc)-HEK293 cells; format: cell-based; settings: 6 μM peptide, 5 ng/mL TNFα
Experimental: NF-κB reporter (Luc)-HEK293 cells 30 (BPS Bioscience, San Diego, Calif.) were seeded at a density of 5,000 cells per well in Greiner white 96-well cell culture microplates in 50 μL of growth medium (DMEM+10% FBS+1% P/S). Cells were incubated overnight at 37° C. in the presence of 5% CO2. TNFα (5 ng/mL) and different concentrations of compound C1-74-2 (0-6 μM) were incubated for 1 h in 5 μL of growth medium (DMEM+5% FBS+1% P/S) at 37° C. in the presence of 5% CO2. The growth medium in the plate was replaced with 50 μL of fresh medium (DMEM+5% FBS+1% P/S). The pre-incubated TNFα and peptide mixture (5 μL) was added into each well, with 5 μL of growth medium only added as the control. The cells were incubated at 37° C. with 5% CO2 for 2 h. Fifty μL of ONE-Step™ Luciferase Assay reagent (BPS Bioscience, San Diego, Calif.) was added into each well. The whole plate was incubated at room temperature for 5 min and the luminescence generated was measured on a Tecan M1000 Pro microplate reader.
WEHI-13VAR cells were treated with TNFα in the presence of increasing concentrations of C1-74-2 (0-20 μM) and the cell lysates were probed with antibodies specific for phosphorylated JNK (p-JNK) as well as total JNK. […]

Serum stability test = format: in vitro ADME, human; settings: human, diluted human serum (25%), supernatant after centrifugation; 8 h at 37° C.; read-out: Degradation in human serum
Experimental: Diluted human serum (25%) was centrifuged at 15,000 rpm for 10 min, and the supernatant was collected. A peptide stock solution was diluted into the supernatant to a final concentration of 5 μM and incubated at 37° C. At various time points (0-8 h), 200-μL aliquots were withdrawn and mixed with 50 μL of 15% trichloroacetic acid and 200 μL of acetonitrile. After incubation at 4° C. overnight, the mixture was centrifuged at 15,000 rpm for 10 min in a microcentrifuge, and the supernatant was analyzed by reversed-phase HPLC equipped with an analytical C18 column (Waters). The amount of remaining intact peptide (%, relative that of time zero control) was determined by integrating the area underneath the peptide peak (monitored at 214 nm).

CC(=O)[C@@H]1CCCN(C(=O)[C@@H](Cc2c[nH]cn2)NC(=O)C(N)C(C)C)C1 (some centres unmarked) [Compound C1-74-2]
EC50 [1]: ~50 nM | Concentration giving almost complete protection ([1]; 0.4 ng/mL TNFα): ≥ 100 nM | LD50 value of TNFα [2]: 31 ng/mL | Reduction of TNFα-induced luciferase activity [3]: ~50% | metabolised at 8 h, 5 μM (Serum stability test): ~15%
